Source: patent US20220186063A1, “BEVERAGE STRAW COATED WITH AN ACTIVE COMPOUND AND METHOD OF MANUFACTURING” (priority 2020, published 2022)

Assay: Release of THC from straw coating as water is drawn through the straw (Example 5)
Type: physicochemical
Conditions: after 220 ml of water passes through the straw over 30 minutes; composite of six straws
Procedure: A study was performed to determine how long it takes for […] to be released from the coating as a liquid is drawn through the coated straw, and to determine how much liquid is required to achieve the full dose of the active ingredient.
The volume of dispersion required to achieve a 10 mg dose of THC was calculated. A pipette was calibrated to ensure that it dispenses the correct amount of dispersion to achieve the desired dose, and then it was loaded with the appropriate amount of the dispersion.
The calculated amount of dispersion was injected using the pipette into PFTA sugarcane straws. The dispersion was allowed to gradually coat the inside of each straw by arranging them vertically. Care was taken to not allow the dispersion to come out of the bottom of the straws.
Straws were dried by taping them horizontally to a tray using food-grade mylar and placing the tray into a convection oven at 55° C. for approximately 60 minutes or until dispersion was visibly dry. Straws were checked every 30 minutes. Once the straws were dry, they were removed from the oven and allowed to cool.
For each straw, a syringe was affixed to the end of a prepared coated straw. The opposing end of the straw was placed in a beaker of deionized water. […]

CCCCCc1cc(O)c2c(c1)OC(C)(C)[C@@H]1CCC(C)=C[C@@H]21 [THC, (6aR,10aR)-6,6,9-trimethyl-3-pentyl-6a,7,8,10a-tetrahydro-6H-benzo[c]chromen-1-ol]
THC released from the coating: approximately 60%
